Data on 24 molecules can be found in ChEMBL document CHEMBL4665793, “Screening and Reverse-Engineering of Estrogen Receptor Ligands as Potent Pan-Filovirus Inhibitors” (J Med Chem, 2020).

SMILES strings stand for the structures.

Series [1] concerns Marburgvirus. The series is classed as functional, organism-based. To be noted: Orthomarburgvirus, Angola, A549, 24 h.
Series [2] can be described thus: in vitro. The conditions noted are these: human, A549 cells.
Series [3] can be described thus: in vitro. To be noted: human, A549 cells. The source holds these as a separate data set.
Series [4] has as its system Marburgvirus. Description: microbe, parasite or virus in culture. To be noted: Orthomarburgvirus, Musoke, A549, 48 h.
For a further series, the system named is Zaire ebolavirus. Description: microbe, parasite or virus in culture. The conditions noted are these: Mayinga, Zaire, 1976, A549, 48 h.

By IC50 is commonly meant the point on the concentration scale where inhibition reaches its midpoint. Consider `CC/C(=C(/c1ccc(NC(=O)CN2CCN(C)CC2)cc1)c1ccc(OCCN2CCCC2)cc1)c1ccccc1`, for which the IC50 in the series on Marburgvirus [1] was 0.36 µM; in the series with Marburgvirus [4], 0.42 µM; with Zaire ebolavirus, 0.01 µM. The figures for the selectivity ratio in “in vitro [2]” and in “in vitro [3]” were 1400 and 7, respectively.
For `CC/C(=C(/c1ccc(NC(=O)C2CCN(C3CCN(C)CC3)CC2)cc1)c1ccc(OCCN2CCCC2)cc1)c1ccccc1` the same measures were 1.07 µM, 2.05 µM, 0.18 µM, 79 and 16.
As to `Cc1c(-c2ccc(O)cc2)n(Cc2ccc(OCCN3CCCCCC3)cc2)c2ccc(O)cc12` [BAZEDOXIFENE], the selectivity ratio came to 10 in the series “in vitro [2]” and 6 in “in vitro [3]”. In addition, the IC50 with Marburgvirus [4] came to 3.83 µM; in the series with Zaire ebolavirus it was 2.24 µM.
Regarding `CCNCCc1ccc(CN(CC)c2cc(OC)ccc2[C@@H]2CCc3cc(O)ccc3C2)cc1` [ELACESTRANT], the selectivity ratio stood at 44 in the series “in vitro [2]” and 8 in “in vitro [3]”. Also, the IC50 was 1.3 µM with Marburgvirus [4] and 0.24 µM in the series with Zaire ebolavirus.
Regarding `Oc1ccc2c(Oc3ccc(OCCN4CCCCC4)cc3)c(-c3ccc(F)cc3)sc2c1`, the selectivity ratio in “in vitro [2]” turned out to be 15; in “in vitro [3]”, 7. Moreover, the results for the IC50 in the series on Marburgvirus [4] and with Zaire ebolavirus were 2.04 µM and 0.98 µM, respectively.
With `CC/C(=C(/c1ccc(N)cc1)c1ccc(OCCN2CCCC2)cc1)c1ccccc1`, the IC50 in the series on Marburgvirus [1] came to 1.78 µM; with Marburgvirus [4] it was 1.07 µM; in the series on Zaire ebolavirus, 0.13 µM. Further, the selectivity ratio in the series “in vitro [2]” is 147; in “in vitro [3]”, 13.
`Cc1c(-c2ccc(O)cc2)nn(-c2ccc(O)cc2)c1-c1ccc(OCCN2CCCCC2)cc1`: the selectivity ratio in the series “in vitro [2]” turned out to be 11; in “in vitro [3]”, 12. Besides, the concentration for half-maximal inhibition (IC50) worked out at 1.19 µM in the series with Marburgvirus [4] and 1.31 µM in the series with Zaire ebolavirus.
As to `CC1=C(c2ccc(O)cc2)[C@H](c2ccc(OCCN3CCCCC3)cc2)Oc2ccccc21`, the selectivity ratio stood at 11 in “in vitro [2]” and 19 in the series “in vitro [3]”. Also, the IC50 in the series with Marburgvirus [4] is 0.9 µM; with Zaire ebolavirus it was 1.5 µM.
As for `Cc1cc(F)cc(C)c1C(=O)c1sc2cc(O)ccc2c1Oc1ccc(OCCN2CC(CF)C2)cc1`, the values for the selectivity ratio in the series “in vitro [2]” and in “in vitro [3]” were 21 and 15, respectively. For the same molecule, the results for the IC50 with Marburgvirus [4] and in the series with Zaire ebolavirus were 1.87 µM and 1.32 µM, respectively.
As to `OCCOc1ccc(/C(=C(/CCCl)c2ccccc2)c2ccccc2)cc1` [OSPEMIFENE], the selectivity ratio in “in vitro [2]” was 7; in the series “in vitro [3]”, less than 1. Besides, the IC50 was 34.4 µM in the series on Marburgvirus [4] and 3.8 µM in the series with Zaire ebolavirus.
Take `CC/C(=C(/c1ccc(NC(=O)CN2CCOCC2)cc1)c1ccc(OCCN2CCCC2)cc1)c1ccccc1`: the half-maximal inhibitory concentration (IC50) with Marburgvirus [1] is 2.8 µM; with Marburgvirus [4], 1.21 µM; in the series on Zaire ebolavirus, 0.35 µM. Also, the figures for the selectivity ratio in “in vitro [2]” and in the series “in vitro [3]” were 47 and 14, respectively.
For `CC/C(=C(/c1ccc(NC(=O)CN2CCOCC2)cc1)c1ccc(OCCN2CCOCC2)cc1)c1ccccc1` the same measures were 3.24 µM, 4.23 µM, 0.74 µM, 40 and 13.
For `COc1ccc2c(Oc3ccc(OCCN4CCCCC4)cc3)c(-c3ccccc3)sc2c1` the same measures were more than 6.25 µM, 3.18 µM, 0.26 µM, 88 and 8.
As for `COc1ccc2c(Oc3ccc(OCCN4CCCCC4)cc3)c(-c3ccc(Br)cc3)[s+]([O-])c2c1` (centres undefined), the selectivity ratio is more than 47 in the series “in vitro [2]” and more than 55 in “in vitro [3]”. For the same molecule, the figures for the concentration for half-maximal inhibition (IC50) in the series on Marburgvirus [4] and with Zaire ebolavirus were 1.81 µM and 2.14 µM, respectively.
Consider `CC/C(=C(/c1ccc(NC(=O)CC2CCN(C)CC2)cc1)c1ccc(OCCN2CCCC2)cc1)c1ccccc1`, for which the half-inhibitory concentration (IC50) was determined as 0.87 µM in the series on Marburgvirus [1], 0.62 µM in the series on Marburgvirus [4] and 0.006 µM in the series on Zaire ebolavirus. Moreover, the selectivity ratio in “in vitro [2]” worked out at 1400; in the series “in vitro [3]” it was 33.
`COc1ccc2c(c1)CCC(c1ccccc1)=C2c1ccc(OCCN2CCCC2)cc1` [NAFOXIDINE]: the IC50 is more than 6.25 µM in the series on Marburgvirus [1], 1.3 µM in the series on Marburgvirus [4] and 0.1 µM with Zaire ebolavirus. Moreover, the selectivity ratio is 82 in the series “in vitro [2]” and 6 in the series “in vitro [3]”.
On the same counts, the results for `Cc1ccccc1C(=O)c1sc2cc(O)ccc2c1Oc1ccc(OCCN2CC(CF)C2)cc1` are more than 6.25 µM, 3.88 µM, 1.02 µM, 27 and 7.
For `CC/C(=C(/c1ccc(NCCN2CCCC2)cc1)c1ccc(OCCN2CCCC2)cc1)c1ccccc1` the same measures were more than 25 µM, more than 12.5 µM, 0.33 µM, 79 and 18.
In the case of `COc1ccc2c(Oc3ccc(OCCN4CCCCC4)cc3)c(-c3ccc(Br)cc3)sc2c1`, the selectivity ratio in “in vitro [2]” worked out at 74; in “in vitro [3]”, 37. In addition, the results for the IC50 in the series with Marburgvirus [4] and in the series with Zaire ebolavirus were 1.25 µM and 0.63 µM, respectively.
For `COc1ccc(-c2sc3cc(OC)ccc3c2Oc2ccc(OCCN3CCC(CCNC(=O)CCCCNC(=O)OC(C)(C)C)CC3)cc2)cc1`, the figures for the selectivity ratio in the series “in vitro [2]” and in the series “in vitro [3]” were 57 and 76, respectively. Further, the figures for the IC50 in the series on Marburgvirus [4] and in the series with Zaire ebolavirus were 0.6 µM and 0.8 µM, respectively.
On the same counts, the results for `CCC(c1ccccc1)C(O)(c1ccc(OCCN(C)C)cc1)c1cccc(O)c1` (centres undefined) are 22, 9, 4.4 µM and 1.74 µM.
As to `CC/C(=C(/c1ccc(NCCN2CCOCC2)cc1)c1ccc(OCCN2CCOCC2)cc1)c1ccccc1`, the IC50 with Marburgvirus [1] stood at 2.9 µM; in the series with Marburgvirus [4], 2.18 µM; in the series on Zaire ebolavirus, 0.23 µM. For the same molecule, the selectivity ratio is 111 in “in vitro [2]” and less than 2 in “in vitro [3]”.
For `Oc1ccc2c(Oc3ccc(OCCN4CCCCC4)cc3)c(-c3ccccc3)sc2c1` the same measures were more than 6.25 µM, 0.67 µM, 0.3 µM, 45 and 20.
For `CC/C(=C(/c1ccc(NC(=O)N2CCN(C)CC2)cc1)c1ccc(OCCN2CCCC2)cc1)c1ccccc1` the same measures were 1.06 µM, 0.75 µM, 0.03 µM, 740 and 11.
